# Measured values as given in patent US20150174202A1, “Methods and Compositions for Modulating Beta Cell Proliferation” (The Board of Trustees of the Leland Stanford Junior …, priority 2011, published 2015).
# Entries after “also recorded” stand apart in the source; their conditions may differ.
# How the values were obtained:
# [1] = Serum PDGF-AA by ELISA in NOD-scid mice with osmotic pump; format: in vivo, mouse; conditions: control NOD-scid mice, subcutaneous osmotic pump primed with 4 μg PDGF-AA
# Description: Exposure of islets from young human donors to purified PDGF-AA stimulates ERK-dependent signaling pathways culminating in enhanced β-cell proliferation. However, these studies have not yet shown if PDGF-AA activation is sufficient to drive regeneration of functional β-cell mass in vivo. To assess this question, equivalent numbers of size-matched islets from young (ages 1-10 years) and control adult donors (age >20 years) were transplanted into NOD-scid mice.
# [2] = tested on: human islet β-cells; assay: In vitro human islet β-cell proliferation (BrdU incorporation); format: cell-based; conditions: PDGF-AA 50 ng/ml, 2 days
# Description: For islet studies, human islets were isolated either at Pittsburgh University Medical Center or the University of Alabama, Birmingham. Eight independent human islet preparations from juvenile donors at the age of 8 months, 1.0, 1.5, 2, 3, 4, 5 and 6 years, and three adult islet preparations from donors at the age of 39, 48 and 56 years were used in this study. After isolation, fresh islets were hand-picked and transferred to RPMI-1640 medium supplemented with 0.5% FBS, 0.2% BSA and 2% penicillin/streptomycin for an overnight recovery before experiments. […] To detect in vitro human islet β-cell proliferation stimulated by PDGF-AA, human islets were exposed to 50 μM BrdU for 24 h. Afterwards, human islets were processed in a similar way as in mouse islet studies for immunostaining of insulin, glucagon, PDX1 and BrdU. β-Cell proliferation rate was determined by quantifying percentage of insulin+ cells with BrdU+. More than 50 islets per group were counted for determining cultured human islet β-cell proliferation rate.
substance,measurement,setting,value
"PDGF-AA: recombinant human PDGF-AA, a homodimer of PDGF alpha polypeptides",serum PDGF-AA levels,[1],Increased
same,β-cell proliferation,[2]; adult human islets,did not alter
same,β-cell BrdU incorporation compared to vehicle-exposed controls,[2]; juvenile human islets,sixfold increase
same,identity of proliferating BrdU+ cells stimulated by PDGF-AA,"[2]; juvenile human islets, confocal microscopy",predominantly β-cells; also recorded: majority of PDGF-AA stimulated proliferating islet cells were PDX1+cells
